Measurements published in patent publication US10307437B2, “Methods for treatment of vascular endothelial dysfunction using nicotinamide mononucleotide” (The Regents of the University of Colorado, a Body Corporate, priority 2014, dated 2019).
Entries after “also recorded” stand apart in the source; their conditions may differ.

Assays:
superoxide = assay: Aortic superoxide production by EPR spectroscopy; type: in vivo; settings: young mice, NMN 8 weeks
Text: (§1) Young (4-8 months) C57Bl/6 male mice were purchased from Charles River and old (26-28 months) C57Bl/6 male mice were obtained from the National Institute on Aging rodent colony. Mice were fed normal rodent chow ad libitum for the duration of the study. After an acclimation period of 2 weeks, the young and old mice were divided into two subgroups: control animals (YC, OC) continued on normal drinking water and the other animals (YNMN, ONMN) received nicotinamide mononucleotide (NMN; Sigma-Aldrich Corp., St. Louis, Mo., USA) supplementation in the drinking water (240 mg/kg/day) for 8 weeks. All mice were housed in an animal care facility at the University of Colorado Boulder on a 12:12 hour light-dark cycle. All animal procedures conformed to the Guide to the Care and Use of Laboratory Animals (NIH publication No. 85-23, revised 1996) and were approved by the UCB Animal Care and Use Committee.
Measurement of superoxide production in the thoracic aorta was performed using electron paramagnetic resonance (EPR) spectroscopy, as previously described (LaRocca T. J. et al. 2013, Mech Ageing Dev. 134, 314-320). […] The signal amplitude was analyzed using an MS300 X-band EPR spectrometer (Magnettech GmbH, Berlin, Germany) with the following settings: centrefield, 3350 G; sweep, 80 G; microwave modulation, 3000 mG, and microwave attenuation, 7 dB. […]

C57Bl/6 male mice [1] = assay: In vivo aortic pulse wave velocity; settings: young mice, NMN 240 mg/kg/day, 8 weeks
Text: as §1, with “All animal procedures conformed to the Guide to the Care and Use of Laboratory Animals (NIH publication No. 85-23, revised 1996) and were approved by the UCB Animal Care and Use Committee.” left out
Aortic pulse wave velocity (aPWV) was measured as described previously (Sindler A. L. et al. 2011, Aging Cell. 10, 429-437; Fleenor B. S. et al. 2012b, Exp Gerontol. 47, 588-594). […] Aortic blood flow velocity was measured with two Doppler probes placed at the transverse aortic arch and abdominal aorta, respectively. Pre-ejection time, the time between the R-wave of the ECG to foot of the Doppler signal, was determined for each site. aPWV was calculated by dividing the distance between the transverse and abdominal probes by the difference in the thoracic and abdominal pre-ejection times.

nitrotyrosine = assay: Western blot of aortic nitrotyrosine abundance; type: in vivo, mice; settings: NMN 8 weeks
Text: as §1, with “All animal procedures conformed to the Guide to the Care and Use of Laboratory Animals (NIH publication No. 85-23, revised 1996) and were approved by the UCB Animal Care and Use Committee.” left out
(§2) Aortas were used as a surrogate large elastic artery to provide sufficient tissue for analysis of protein expression by Western blot as described previously (Donato A. J. et al. 2013, J Physiol. 589, 4545-4554; Gano L. B. et al. 2014, Am J Physiol Heart Circ Physiol. 307, H1754-1763). […] Relative intensity was quantified using Image-J Software Version 1.0. […] The ratio of acetylated to total p65 was determined by running two identical Western blots. […] The ratio of acetylated to total p65 was determined for each animal and then normalized to the YC group mean.

SIRT1 [2] = assay: Western blot of aortic SIRT1 expression; type: in vivo, mice; settings: NMN 8 weeks
Text: as §1, with “All animal procedures conformed to the Guide to the Care and Use of Laboratory Animals (NIH publication No. 85-23, revised 1996) and were approved by the UCB Animal Care and Use Committee.” left out
as §2

elastin = assay: Immunohistochemistry of aortic elastin; type: in vivo; settings: old mice, NMN 8 weeks
Text: as §1
(§3) Immunohistochemistry was used to determine aortic expression of collagen type I and elastin as previously described (Fleenor B. S. et al. 2010 J Physiol. 588, 3971-3982). […] Digital photomicrographs were obtained using a Nikon Eclipse TS100 photomicroscope, and quantification was performed with Image-J Software Version 1.0. The adventitial and medial layers for each sample were quantified together for whole vessel expression. […]

[3] = set-up: species or system mice; settings: mouse, in vivo
Text: as §1
Data are presented as mean±SEM in text, figures and tables. All analyses were performed with SPSS. A one-way ANOVA (Analysis of Variance) was used to analyze morphological characteristics, maximum EDD, NO-mediated EDD, EPR spectroscopy, aPWV, elastic modulus, Western blots, and immunohistochemistry. Within-group differences in the maximal EDD dose response to acetylcholine in the absence vs. presence of TEMPOL was determined using two-factor (group×treatment) repeated-measures ANOVA. […]

SIRT1 [4] = target: T1, SIRT1 (Mus musculus, UniProt Q923E4); assay: SIRT1 activation by ratio of acetylated to total NFκB (p65 subunit) in aorta; type: in vivo; set-up: Aortas were used as a surrogate large elastic artery to provide sufficient tissue for analysis of protein expression by Western blot; from tissue; host or cells: mouse aorta (C57Bl/6); settings: old mice, NMN 8 weeks
T1 sequence (Q923E4 1-737): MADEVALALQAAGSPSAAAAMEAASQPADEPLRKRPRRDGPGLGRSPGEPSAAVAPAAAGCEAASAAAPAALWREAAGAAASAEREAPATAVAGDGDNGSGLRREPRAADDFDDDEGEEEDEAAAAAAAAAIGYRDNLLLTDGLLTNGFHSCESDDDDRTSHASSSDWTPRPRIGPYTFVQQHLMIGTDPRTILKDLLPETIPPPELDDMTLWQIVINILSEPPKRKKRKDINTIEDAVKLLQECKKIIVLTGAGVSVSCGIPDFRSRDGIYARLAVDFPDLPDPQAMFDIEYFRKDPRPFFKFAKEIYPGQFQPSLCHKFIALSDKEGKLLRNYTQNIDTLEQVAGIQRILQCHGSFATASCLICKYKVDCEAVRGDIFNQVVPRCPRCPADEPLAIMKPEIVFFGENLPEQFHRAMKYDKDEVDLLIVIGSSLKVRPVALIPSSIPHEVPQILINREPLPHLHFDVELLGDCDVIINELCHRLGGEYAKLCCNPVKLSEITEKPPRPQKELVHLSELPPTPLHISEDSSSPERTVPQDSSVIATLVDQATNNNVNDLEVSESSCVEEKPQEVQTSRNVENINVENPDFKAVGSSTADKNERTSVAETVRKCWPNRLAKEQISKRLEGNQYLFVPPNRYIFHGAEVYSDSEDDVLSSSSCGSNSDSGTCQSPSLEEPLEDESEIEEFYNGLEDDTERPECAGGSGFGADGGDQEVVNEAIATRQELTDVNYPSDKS
Text: as §1, with “All animal procedures conformed to the Guide to the Care and Use of Laboratory Animals (NIH publication No. 85-23, revised 1996) and were approved by the UCB Animal Care and Use Committee.” left out
as §2

C57Bl/6 male mice [5] = assay: Ex vivo carotid artery vasodilatory responses after NMN supplementation in drinking water
collagen type I = assay: Immunohistochemistry of aortic collagen type I; type: in vivo; settings: old mice, NMN 8 weeks
Text: as §1, §3

carotid arteries = assay: Ex vivo incubation of isolated carotid arteries with TEMPOL, EDD to acetylcholine; set-up: species or system mice; settings: other groups (YC, YNMN, ONMN); TEMPOL 0.1 mM, 1 hour incubation
Experimental: EDD and endothelium-independent dilation were determined ex vivo in isolated carotid arteries as previously described (Rippe C. et al. 2010, Aging Cell. 9, 304-312; Sindler A. L. et al. 2011, Aging Cell. 10, 429-437). Mice were anesthetized using isoflurane and euthanized by exsanguination via cardiac puncture. The carotid arteries were carefully excised, cannulated onto glass micropipette tips, and secured with nylon (11-0) sutures in individual myograph chambers (DMT Inc., Ann Arbor, Mich., USA) containing buffered physiological saline solutions. The arteries were pressurized to 50 mmHg at 37° C. and were allowed to equilibrate for 45 minutes before experimentation. After submaximal preconstriction with phenylephrine (2 μM), increases in luminal diameter in response to acetylcholine (ACh: 1×10^−9-1×10^−4 M; Sigma-Aldrich Corp.) with and without co-administration of the NO synthase inhibitor, L-NAME, 0.1 mM, 30 minute incubation; (Sigma-Aldrich Corp.) or the superoxide dismutase mimetic 4-Hydroxy-2,2,6,6-tetramethylpiperidine-1-oxyl (TEMPOL, 0.1 mM, 1 hour incubation; Sigma-Aldrich Corp.) were determined. Endothelium-independent dilation was determined by vasodilation in response to the NO donor sodium nitroprusside (SNP: […]-1×10^−4 M; Sigma-Aldrich Corp.).
All dose-response data are presented as percent dilation, i.e. FIGS. 1A, 1C and 2A. […]

SIRT1 [6] = target: T1, SIRT1; settings: in part by reducing oxidative stress (Gano et al. 2014); cited from earlier work

With NC(=O)c1ccc[n+]([C@@H]2O[C@H](COP(=O)([O-])O)[C@@H](O)[C@H]2O)c1 [NMN, nicotinamide mononucleotide] the aortic superoxide production (superoxide) was “no significant effect”, the “aortic pulse wave velocity (aPWV)” value (C57Bl/6 male mice [1]) was “no significant effect” and the aortic nitrotyrosine abundance (nitrotyrosine; old mice) was “decreased; also recorded: markedly reduced”. The aortic nitrotyrosine abundance (nitrotyrosine; young mice) was “no significant effect”, the “aortic SIRT1 protein expression” value (SIRT1 [2]; old mice) was “tended to increase” and the “aortic SIRT1 protein expression” value (SIRT1 [2]; young mice) was “increased”. For the same molecule, the arterial elastin expression (elastin) was “partially increased; also recorded: increased elastin to levels not significantly different from young mice”, the “body mass across the four groups” value [3] was “no significant differences” and the “vascular SIRT1 activity (ratio of acetylated to total p65 subunit of NFκB)” value (SIRT1 [4]) was “restored”. For the same molecule, the “Endothelium-independent dilation to sodium nitroprusside” value (C57Bl/6 male mice [5]; young and old mice, NMN-treated vs controls) was “not significantly different; also recorded: did not influence”, the “EDD and NO-mediated dilation” value (C57Bl/6 male mice [5]; young mice, NMN 240 mg/kg/day in drinking water, 8 weeks) was “had no effect” and the “arterial collagen type I expression” value (collagen type I) was “reversed; also recorded: reduced arterial collagen type I to levels of young mice”.

In the case of CC1(C)CC(O)CC(C)(C)N1[O] [TEMPOL, 4-hydroxy-2,2,6,6-tetramethylpiperidin-1-oxyl], the “carotid artery EDD in presence of TEMPOL” value (carotid arteries) is reported as “no significant effect; also recorded: no significant improvement”.

In the case of O=C(Nc1ccccc1-c1cn2c(CN3CCNCC3)csc2n1)c1cnc2ccccc2n1 [SRT1720], the “EDD in old mice” value (SIRT1 [6]) is listed as “improves”.
